Results: patent publication US7183295B2, “PPAR-activating compound and pharmaceutical composition comprising the compound” (Kowa Co., Ltd., priority 2003, dated 2007)

Legend:
Assay type in all cases: cell-based
[1] = biological target: T1, human PPARα (166–467aa) ligand binding domain (Homo sapiens, UniProt Q07869); assay: PPAR transfection (Gal4-LBD luciferase reporter) assay, hPPARα; conditions: transfected COS-7 cells, 16 hours, luciferase activity; read-out: hPPAR; EC50 α (agonist activity)
T1 construct: human PPARα (166–467aa); expressed in transfected cells; host or cells: COS-7
T1 sequence (Q07869 166-467): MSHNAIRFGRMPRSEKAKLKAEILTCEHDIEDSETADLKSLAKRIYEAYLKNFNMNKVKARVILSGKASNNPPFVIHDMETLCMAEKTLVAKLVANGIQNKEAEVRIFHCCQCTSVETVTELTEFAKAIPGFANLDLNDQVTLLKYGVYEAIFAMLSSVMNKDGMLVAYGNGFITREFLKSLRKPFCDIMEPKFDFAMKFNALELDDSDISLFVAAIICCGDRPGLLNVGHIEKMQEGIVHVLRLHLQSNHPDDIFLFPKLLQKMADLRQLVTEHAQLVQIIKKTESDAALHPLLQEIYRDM
Protocol: (§1) COS-7 cells, which is African green monkey kidney cell line, were used for all transfection assays. Cells were cultured in DMEM medium supplemented with 10% fetal bovine serum, glutamic acid, and an antibiotic under humidified 5% CO2 atmosphere.
(§2) Cells were transfected by lipofectamine reagent with a mixture containing expression plasmid, firefly luciferase reporter plasmid. And a β-galactosidase expression plasmid used as an internal control for transfection efficiency.
(§3) Transiently transfected cells were incubated with DMEM with 0.2% FCS with or without compound. And after 16 hours, luciferase activity and β-galactosidase activity of cell lysate were measured.
(§4) Each compound was dissolved in and diluted with dimethyl sulfoxide (DMSO), and the DMSO concentration of the DMEM medium (containing 0.2% serum) was adjusted to 0.1% upon treatment of cells.

[2] = biological target: T2, human PPARγ (182–505aa) ligand binding domain (Homo sapiens, UniProt P37231); assay: PPAR transfection (Gal4-LBD luciferase reporter) assay, hPPARγ; conditions: transfected COS-7 cells, 16 hours, luciferase activity; read-out: hPPAR; EC50 γ (agonist activity)
T2 construct: γ(182–505aa); expressed in transfected cells; host or cells: COS-7
T2 sequence (P37231 182-505): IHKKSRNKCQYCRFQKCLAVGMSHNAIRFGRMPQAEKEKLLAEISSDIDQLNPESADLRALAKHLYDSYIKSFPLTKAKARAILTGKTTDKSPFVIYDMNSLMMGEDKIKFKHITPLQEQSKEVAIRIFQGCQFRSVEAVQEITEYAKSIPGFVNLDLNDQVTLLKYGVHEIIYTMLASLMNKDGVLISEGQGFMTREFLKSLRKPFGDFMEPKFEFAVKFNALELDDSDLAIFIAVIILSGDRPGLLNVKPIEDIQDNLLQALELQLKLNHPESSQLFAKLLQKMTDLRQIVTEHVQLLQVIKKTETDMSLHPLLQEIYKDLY
Protocol: as §1, §2, §3, §4

[3] = biological target: T3, human PPARδ (137–441aa) ligand binding domain (Homo sapiens, UniProt Q03181); assay: PPAR transfection (Gal4-LBD luciferase reporter) assay, hPPARδ; conditions: transfected COS-7 cells, 16 hours, luciferase activity; read-out: hPPAR; EC50 δ (agonist activity)
T3 construct: δ (137–441aa); expressed in transfected cells; host or cells: COS-7
T3 sequence (Q03181 137-441): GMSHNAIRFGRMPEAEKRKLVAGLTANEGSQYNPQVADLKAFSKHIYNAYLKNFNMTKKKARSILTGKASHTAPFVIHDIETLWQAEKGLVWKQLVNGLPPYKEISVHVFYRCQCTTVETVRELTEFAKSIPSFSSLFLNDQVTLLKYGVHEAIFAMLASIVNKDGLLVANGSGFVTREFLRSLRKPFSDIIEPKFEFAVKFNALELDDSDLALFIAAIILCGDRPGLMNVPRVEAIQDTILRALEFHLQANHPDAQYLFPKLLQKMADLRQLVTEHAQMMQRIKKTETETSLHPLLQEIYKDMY
Protocol: as §1, §2, §3, §4

SMILES | EC50 [1] | EC50 [2] | EC50 [3]
CC[C@@H](Oc1cccc(CN(CCCOc2ccc(F)cc2)c2nc3ccccc3o2)c1)C(=O)O [Example 87, (R)-2-[[3-[N-(Benzoxazol-2-yl)-N-3-(4-fluorophenoxy)propyl]aminomethyl]phenoxy]butyric acid] | 3 nM | 940 nM | 1200 nM
CC(C)(Oc1cccc(CN(CCOc2ccc(Cl)cc2)c2nc3ccccc3o2)c1)C(=O)O [Example 6, 2-[3-[[N-(Benzoxazol-2-yl)-N-2-(4-chlorophenoxy)ethyl]aminomethyl]phenoxy]-2-methylpropionic acid] | 70 nM | 3500 nM | > 100000 nM
COc1ccc2oc(N(CCCOc3ccc(Cl)cc3)Cc3cccc(OC(C)C(=O)O)c3)nc2c1 (stereo not drawn) [Example 206] | 10 nM | 1400 nM | 1700 nM
CC(Oc1cccc(CCN(CCOc2ccc(F)cc2)c2nc3cc(Cl)ccc3o2)c1)C(=O)O (stereo not drawn) [Example 36, 2-[3-[2-[N-(5-Chlorobenzoxazol-2-yl)-N-2-(4-fluorophenoxy)ethyl]aminoethyl]phenoxy]propionic acid] | 50 nM | 2100 nM | 1600 nM
COc1ccc(OCCCN(Cc2cccc(OC(C)C(=O)O)c2)c2nc3ccccc3o2)cc1 (stereo not drawn) [Example 20, 2-[3-[[N-(Benzoxazol-2-yl)-N-3-(4-methoxyphenoxy)propyl]aminomethyl]phenoxy]propionic acid] | 10 nM | 1200 nM | 2000 nM
